PubChem BioAssay AID256 (DTP/NCI, 2004)
Several values for one entry are separate records, joined by “and”; a condition that tells them apart may be missing. Equal values may be shown once. Inconclusive results and toxic doses are left out.

System: CD2F1 mice, L1210 leukemia ip, survival T/C
Assay: NCI In Vivo Anticancer Drug Screen. Data for tumor model L1210 Leukemia (intraperitoneal) in CD2F1 (CDF1) mice
Settings: higher = longer survival
Outline: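 Implant tumor; dose compound or vehicle; measure endpoint in both groups; report treated divided by control.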

[1] = endpoint: mean survival time, dose: 100.0 mg/kg/injection, schedule: Q01DX009 (ip), vehicle: saline
[2] = endpoint: mean survival time, dose: 100.0 mg/kg/injection, schedule: Q04DX003 (ip), vehicle: saline
[3] = endpoint: mean survival time, dose: 200.0 mg/kg/injection, schedule: Q01DX009 (ip), vehicle: saline
[4] = endpoint: mean survival time, dose: 200.0 mg/kg/injection, schedule: Q04DX003 (ip), vehicle: saline
[5] = endpoint: mean survival time, dose: 400.0 mg/kg/injection, schedule: Q01DX009 (ip), vehicle: saline
[6] = endpoint: mean survival time, dose: 100.0 mg/kg/injection, schedule: Q01DX001 (ip), vehicle: saline with Tween-80
[7] = endpoint: mean survival time, dose: 100.0 mg/kg/injection, schedule: Q04DX003 (ip), vehicle: saline with Tween-80
[8] = endpoint: mean survival time, dose: 200.0 mg/kg/injection, schedule: Q04DX003 (ip), vehicle: saline with Tween-80
[9] = endpoint: mean survival time, dose: 400.0 mg/kg/injection, schedule: Q04DX003 (ip), vehicle: saline with Tween-80
[10] = endpoint: mean survival time, dose: 100.0 mg/kg/injection, schedule: Q01DX001 (ip), vehicle: saline
[11] = endpoint: mean survival time, dose: 50.0 mg/kg/injection, schedule: Q01DX009 (ip), vehicle: saline with Tween-80
[12] = endpoint: mean survival time, dose: 100.0 mg/kg/injection, schedule: Q01DX009 (ip), vehicle: saline with Tween-80
[13] = endpoint: mean survival time, dose: 200.0 mg/kg/injection, schedule: Q01DX009 (ip), vehicle: saline with Tween-80
[14] = endpoint: mean survival time, dose: 200.0 mg/kg/injection, schedule: Q01DX001 (ip), vehicle: saline with Tween-80
[15] = endpoint: mean survival time, dose: 400.0 mg/kg/injection, schedule: Q01DX001 (ip), vehicle: saline with Tween-80
[16] = endpoint: mean survival time, dose: 100.0 mg/kg/injection, schedule: Q04DX002 (ip), vehicle: saline with Tween-80
[17] = endpoint: mean survival time, dose: 200.0 mg/kg/injection, schedule: Q04DX002 (ip), vehicle: saline with Tween-80
[18] = endpoint: mean survival time, dose: 400.0 mg/kg/injection, schedule: Q04DX002 (ip), vehicle: saline with Tween-80
[19] = endpoint: mean survival time, dose: 25.0 mg/kg/injection, schedule: Q01DX009 (ip), vehicle: water
[20] = endpoint: mean survival time, dose: 50.0 mg/kg/injection, schedule: Q01DX009 (ip), vehicle: water
[21] = endpoint: mean survival time, dose: 100.0 mg/kg/injection, schedule: Q01DX009 (ip), vehicle: water
[22] = endpoint: mean survival time, dose: 200.0 mg/kg/injection, schedule: Q01DX009 (ip), vehicle: water

CC(O)CN1CC(C)OC(C)C1 (stereo not given)
T/C [1]: 100 % of control | T/C [2]: 103 % of control | T/C [3]: 100 % of control | T/C [4]: 103 % of control | T/C [5]: 100 % of control | T/C (endpoint: mean survival time, dose: 400.0 mg/kg/injection, schedule: Q04DX003 (ip), vehicle: saline): 101 % of control

C(=N\N=C\c1ccco1)/c1ccco1
T/C (endpoint: mean survival time, dose: 25.0 mg/kg/injection, schedule: Q01DX001 (ip), vehicle: saline with Tween-80): 87 % of control | T/C (endpoint: mean survival time, dose: 50.0 mg/kg/injection, schedule: Q01DX001 (ip), vehicle: saline with Tween-80): 97 % of control | T/C [6]: 100 % of control | T/C [7]: 97 % of control | T/C [8]: 101 % of control

C1=C[S+](c2ccccc2)C(c2ccccc2)c2ccccc21 (stereo not given)
T/C (endpoint: mean survival time, dose: 12.5 mg/kg/injection, schedule: Q04DX002 (ip), vehicle: Klucel (hydroxypropylcellulose) (HPC)): 106 % of control | T/C (endpoint: mean survival time, dose: 25.0 mg/kg/injection, schedule: Q04DX002 (ip), vehicle: Klucel (hydroxypropylcellulose) (HPC)): 115 % of control

N#Cc1cccc2c(S(=O)(=O)O)cccc12
T/C [7]: 98 % of control | T/C [8]: 90 % of control | T/C [9]: 104 % of control

CC1(C)C=CC(C)(C)c2c(NS(=O)(=O)c3ccccc3)ccc(NS(=O)(=O)c3ccccc3)c21
T/C [7]: 98 % of control | T/C [9]: 96 % of control

c1ccc2c(c1)cnc1cc3c(cc12)ncc1ccccc13
T/C [10]: 98 % of control | T/C (endpoint: mean survival time, dose: 200.0 mg/kg/injection, schedule: Q01DX001 (ip), vehicle: saline): 106 % of control | T/C (endpoint: mean survival time, dose: 400.0 mg/kg/injection, schedule: Q01DX001 (ip), vehicle: saline): 116 % of control

NC(=S)Nc1ccc(C23CCC(CC2)CC3)cc1
T/C [11]: 101 % of control | T/C [12]: 101 % of control | T/C [13]: 109 % of control

NCc1cc(O)c(O)c(O)c1
T/C (endpoint: median survival time, dose: 37.5 mg/kg/injection, schedule: Q01DX005 (ip), vehicle: saline): 114 % of control | T/C (endpoint: median survival time, dose: 150.0 mg/kg/injection, schedule: Q01DX005 (ip), vehicle: saline): 153 % of control | T/C (endpoint: median survival time, dose: 300.0 mg/kg/injection, schedule: Q01DX005 (ip), vehicle: saline): 156 % of control and 160 % of control

COC(=O)C1CCOC1=O (stereo not given)
T/C (endpoint: mean survival time, dose: 100.0 mg/kg/injection, schedule: Q04DX002 (ip), vehicle: saline): 98 % of control | T/C (endpoint: mean survival time, dose: 200.0 mg/kg/injection, schedule: Q04DX002 (ip), vehicle: saline): 98 % of control | T/C (endpoint: mean survival time, dose: 400.0 mg/kg/injection, schedule: Q04DX002 (ip), vehicle: saline): 102 % of control

CCCCSC(=N)N
T/C (endpoint: mean survival time, dose: 25.0 mg/kg/injection, schedule: Q01DX001 (ip), vehicle: saline): 100 % of control | T/C (endpoint: mean survival time, dose: 50.0 mg/kg/injection, schedule: Q01DX001 (ip), vehicle: saline): 105 % of control | T/C [10]: 113 % of control

CCN=Cc1ccccc1O.CCN=Cc1ccccc1O.[Pd]
T/C [6]: 106 % of control | T/C [14]: 95 % of control | T/C [15]: 95 % of control

CCOc1ccnc(OCC)n1
T/C [7]: 105 % of control | T/C [8]: 102 % of control

CN1C(=S)c2ccccc2S1(=O)=O
T/C [1]: 96 % of control | T/C [3]: 96 % of control | T/C [5]: 102 % of control

C#CCSc1c(Cl)c(Cl)c(Cl)c(Cl)c1Cl
T/C [16]: 87 % of control | T/C [17]: 95 % of control | T/C [18]: 87 % of control

O=c1cc(CCl)oc(Br)c1O
T/C (endpoint: mean survival time, dose: 25.0 mg/kg/injection, schedule: Q04DX002 (ip), vehicle: saline with Tween-80): 98 % of control | T/C (endpoint: mean survival time, dose: 50.0 mg/kg/injection, schedule: Q04DX002 (ip), vehicle: saline with Tween-80): 98 % of control | T/C [16]: 91 % of control

CCC(C)NC(=O)Nc1ccccc1C(F)(F)F (stereo not given)
T/C [6]: 106 % of control | T/C [12]: 92 % of control | T/C [14]: 95 % of control | T/C [13]: 88 % of control | T/C [15]: 89 % of control | T/C (endpoint: mean survival time, dose: 400.0 mg/kg/injection, schedule: Q01DX009 (ip), vehicle: saline with Tween-80): 94 % of control

CC(NC1CCCCC1)c1ccc(O)cc1O (stereo not given)
T/C (endpoint: mean survival time, dose: 75.0 mg/kg/injection, schedule: Q01DX001 (ip), vehicle: other): 93 % of control | T/C (endpoint: mean survival time, dose: 150.0 mg/kg/injection, schedule: Q01DX001 (ip), vehicle: other): 87 % of control

CC(C)NCc1ccc2c(c1)OCO2
T/C (endpoint: mean survival time, dose: 75.0 mg/kg/injection, schedule: Q01DX001 (ip), vehicle: saline): 98 % of control | T/C (endpoint: mean survival time, dose: 150.0 mg/kg/injection, schedule: Q01DX001 (ip), vehicle: saline): 101 % of control

O=c1cccc[nH]1 (tested in a mixture with another compound)
T/C [11]: 108 % of control | T/C [2]: 97 % of control | T/C [4]: 97 % of control

Cc1c2c(c(C)c3c(C)nccc13)Cc1ccccc1-2
T/C [16]: 92 % of control | T/C [17]: 92 % of control | T/C [18]: 88 % of control

CC(C)(C)c1cccc(C(C)(C)C)c1OC(=O)NS(=O)(=O)c1ccccc1
T/C (endpoint: mean survival time, dose: 12.5 mg/kg/injection, schedule: Q04DX003 (ip), vehicle: acetone): 101 % of control | T/C (endpoint: mean survival time, dose: 25.0 mg/kg/injection, schedule: Q04DX003 (ip), vehicle: acetone): 101 % of control | T/C (endpoint: mean survival time, dose: 50.0 mg/kg/injection, schedule: Q04DX003 (ip), vehicle: acetone): 113 % of control

Cc1ccc(N2CC(O)CSC2=Nc2ccccc2)cc1 (stereo not given)
T/C (endpoint: mean survival time, dose: 100.0 mg/kg/injection, schedule: Q01DX001 (ip), vehicle: Klucel (hydroxypropylcellulose) (HPC)): 93 % of control | T/C (endpoint: mean survival time, dose: 200.0 mg/kg/injection, schedule: Q01DX001 (ip), vehicle: Klucel (hydroxypropylcellulose) (HPC)): 91 % of control | T/C (endpoint: mean survival time, dose: 400.0 mg/kg/injection, schedule: Q01DX001 (ip), vehicle: Klucel (hydroxypropylcellulose) (HPC)): 91 % of control

O=CNc1ccc(I)cc1
T/C [7]: 106 % of control | T/C [8]: 98 % of control | T/C [9]: 101 % of control

CCC(=O)O.CCC(=O)O.CCC(=O)O.CCC(=O)O.O=P1(N(CCCl)CCCl)NCCCO1.O=P1(N(CCCl)CCCl)NCCCO1.[Rh].[Rh] (stereo not given)
T/C (endpoint: mean survival time, dose: 0.5 mg/kg/injection, schedule: Q01DX001 (ip), vehicle: water): 92 % of control | T/C (endpoint: mean survival time, dose: 1.0 mg/kg/injection, schedule: Q01DX001 (ip), vehicle: water): 92 % of control | T/C (endpoint: mean survival time, dose: 2.0 mg/kg/injection, schedule: Q01DX001 (ip), vehicle: water): 102 % of control | T/C (endpoint: mean survival time, dose: 4.0 mg/kg/injection, schedule: Q01DX001 (ip), vehicle: water): 107 % of control

O=C(O)CC1(c2ccccc2)OC(=O)c2ccccc21 (stereo not given)
T/C [6]: 91 % of control | T/C [12]: 96 % of control | T/C [14]: 94 % of control | T/C [13]: 100 % of control | T/C [15]: 89 % of control

C#CCOC(=O)Nc1cccc2ccccc12
T/C (endpoint: mean survival time, dose: 100.0 mg/kg/injection, schedule: Q04DX003 (ip), vehicle: Klucel (hydroxypropylcellulose) (HPC)): 100 % of control | T/C (endpoint: mean survival time, dose: 200.0 mg/kg/injection, schedule: Q04DX003 (ip), vehicle: Klucel (hydroxypropylcellulose) (HPC)): 96 % of control | T/C (endpoint: mean survival time, dose: 400.0 mg/kg/injection, schedule: Q04DX003 (ip), vehicle: Klucel (hydroxypropylcellulose) (HPC)): 94 % of control

CCCCCCCCC(=O)NCCCNC(=O)CCCCCCCC
T/C (endpoint: mean survival time, dose: 75.0 mg/kg/injection, schedule: Q04DX003 (ip), vehicle: saline): 88 % of control | T/C (endpoint: mean survival time, dose: 150.0 mg/kg/injection, schedule: Q04DX003 (ip), vehicle: saline): 88 % of control | T/C (endpoint: mean survival time, dose: 300.0 mg/kg/injection, schedule: Q04DX003 (ip), vehicle: saline): 103 % of control

CC([NH-])C([NH-])O.[Cl][Pt+2][Cl] (stereo not given)
T/C (endpoint: mean survival time, dose: 6.25 mg/kg/injection, schedule: Q04DX003 (ip), vehicle: saline with Tween-80): 115 % of control

CC1(C)CC(O)(Cc2ccccc2)C(=O)c2ccccc21 (stereo not given)
T/C [19]: 95 % of control | T/C [20]: 92 % of control | T/C [21]: 95 % of control | T/C [22]: 95 % of control | T/C (endpoint: mean survival time, dose: 400.0 mg/kg/injection, schedule: Q01DX009 (ip), vehicle: water): 97 % of control

CS/C([S-])=N/N=C/c1ccccn1.[Cl][Pt+]
T/C [7]: 94 % of control | T/C [8]: 100 % of control

CC(=O)C1CC(=O)c2c(O)ccc(O)c2C1 (stereo not given)
T/C (endpoint: mean survival time, dose: 12.5 mg/kg/injection, schedule: Q01DX009 (ip), vehicle: water): 95 % of control | T/C [19]: 101 % of control | T/C [20]: 95 % of control | T/C [21]: 100 % of control | T/C [22]: 100 % of control
